Laboratory results published in patent US7199132B2, “Tropane analogs and methods for inhibition of monoamine transport” (Organix, Inc., priority 2001, dated 2007).
Read-outs that look alike come from different tables or passages of the source.

How the values were obtained:
[1] = target: T1, serotonin transporter (Macaca mulatta, UniProt Q9MYX0); assay: Serotonin transporter assay: inhibition of {3H}citalopram binding in caudate-putamen membranes; set-up: species or system rhesus or cynomolgus monkey; settings: IC50 (nM) SERT, monkey caudate-putamen, mean of 2 or more independent experiments in triplicate
T1 construct: The serotonin transporter was assayed in caudate-putamen membranes using conditions similar to those for the dopamine transporter; from tissue; host or cells: caudate-putamen membranes of cynomolgus or rhesus monkey brain
T1 sequence (Q9MYX0 whole entry): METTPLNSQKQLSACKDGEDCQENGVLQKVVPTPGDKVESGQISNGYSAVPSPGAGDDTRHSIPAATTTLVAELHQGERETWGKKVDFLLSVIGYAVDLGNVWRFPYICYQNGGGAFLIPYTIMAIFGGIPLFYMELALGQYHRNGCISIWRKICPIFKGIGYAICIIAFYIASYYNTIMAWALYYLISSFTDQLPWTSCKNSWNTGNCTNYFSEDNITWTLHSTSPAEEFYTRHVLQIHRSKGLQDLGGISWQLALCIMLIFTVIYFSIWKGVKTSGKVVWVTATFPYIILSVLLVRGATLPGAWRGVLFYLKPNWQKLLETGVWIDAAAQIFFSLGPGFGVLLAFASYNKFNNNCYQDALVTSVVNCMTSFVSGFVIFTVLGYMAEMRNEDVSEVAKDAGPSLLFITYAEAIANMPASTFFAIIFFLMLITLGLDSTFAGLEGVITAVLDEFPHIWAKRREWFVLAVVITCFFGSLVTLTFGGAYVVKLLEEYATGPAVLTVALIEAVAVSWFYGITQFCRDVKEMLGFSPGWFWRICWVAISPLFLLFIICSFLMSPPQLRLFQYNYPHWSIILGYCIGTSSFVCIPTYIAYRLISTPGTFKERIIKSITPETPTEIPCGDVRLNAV

[2] = target: T2, dopamine transporter (Macaca fascicularis, UniProt Q9GJT6); assay: Dopamine transporter assay: inhibition of {3H}WIN 35,428 binding in caudate-putamen membranes; set-up: species or system rhesus or cynomolgus monkey; settings: for SERT/DAT: selectivity ratio IC50 SERT / IC50 DAT; for IC50: inhibition of {3H}WIN 35,428 binding, mean of 2 or more independent experiments in triplicate
T2 construct: The caudate-putamen was dissected from coronal slices and yielded 1.4±0.4 g tissue; Membranes were prepared as described previously; from tissue; host or cells: caudate-putamen membranes of cynomolgus or rhesus monkey brain
T2 sequence (Q9GJT6 whole entry): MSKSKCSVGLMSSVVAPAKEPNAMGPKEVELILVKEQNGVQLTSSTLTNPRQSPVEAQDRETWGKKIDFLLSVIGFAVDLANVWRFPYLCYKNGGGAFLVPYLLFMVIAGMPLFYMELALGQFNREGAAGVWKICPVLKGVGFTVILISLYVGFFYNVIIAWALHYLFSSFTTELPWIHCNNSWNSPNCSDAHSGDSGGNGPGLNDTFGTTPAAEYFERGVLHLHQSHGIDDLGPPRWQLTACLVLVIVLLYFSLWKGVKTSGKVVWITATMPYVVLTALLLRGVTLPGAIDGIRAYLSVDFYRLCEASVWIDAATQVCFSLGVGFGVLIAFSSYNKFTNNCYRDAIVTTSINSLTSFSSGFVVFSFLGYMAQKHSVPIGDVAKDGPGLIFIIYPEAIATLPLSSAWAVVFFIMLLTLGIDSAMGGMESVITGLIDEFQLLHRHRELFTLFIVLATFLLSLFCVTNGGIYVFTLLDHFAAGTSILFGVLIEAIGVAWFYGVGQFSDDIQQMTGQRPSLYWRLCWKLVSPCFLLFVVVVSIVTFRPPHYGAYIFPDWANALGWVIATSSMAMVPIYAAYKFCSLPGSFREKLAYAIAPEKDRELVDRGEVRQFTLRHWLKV

[3] = IC50 (nM) DAT, monkey caudate-putamen

| SMILES | IC50 [1] [nM] | SERT/DAT [2] | IC50 [2, 3] [nM] | further results |
| --- | --- | --- | --- | --- |
| COC(=O)C1C(c2ccc(Cl)c(Cl)c2)CC2C[C@@H](O)C1N2C (stereo partly shown) [Compound 33] | 533 | – | – | potency at the DAT relative to cocaine ([2]; compared with cocaine): almost twice as potent as cocaine |
| COC(=O)[C@H]1[C@@H](c2ccc(Cl)c(Cl)c2)C[C@@H]2CC[C@H]1N2C [Compound 13a, (1R)-3β-(3,4-di-chlorophenyl)-tropane-2β-carboxylic acid methyl ester, reference compound] | 2.47 | 2 | – | – |
| COC(=O)[C@@H]1[C@H]2C[C@H](O)[C@@H](C[C@H]1c1ccc(F)cc1)N2C (relative stereo) [Compound 17c, 2β-Carbomethoxy-3α-(4-fluorophenyl)-6β-hydroxy-8-methyl-8-azabicyclo{3.2.1}octane] | – | 8 | – | melting point: 148 to 150 °C |
| COC(=O)C1=C(c2ccc(F)cc2)CC2CCC1N2C (stereo not shown) [Compound 6c, reference compound] | 7990 | 20 | 408 | – |
| COC(=O)C1C(c2ccc(Cl)c(Cl)c2)CC2CC(O)C1N2C (single isomer, unassigned) [Compound (1S)-18a] | – | – | 0.3 to 7.4 | fold more selective (DAT vs SERT) than 16a ([2]; compared with 16a): 22 fold; fold more selective (DAT vs SERT) than (1S)-15a ([2]; compared with (1S)-15a): 32 fold |
| COC(=O)[C@@H]1[C@H]2[C@H](O)C[C@@H](C[C@@H]1c1ccccc1)N2C (racemic) [Compound 15d, 2β-Carbomethoxy-3β-phenyl-7β-hydroxy-8-methyl-8-azabicyclo{3.2.1}octane] | > 10000 | – | – | melting point: 165.8 to 167.8 °C |
| COC(=O)[C@@H]1[C@H]2CC[C@@H](C[C@H]1c1ccc(F)cc1)N2C (relative stereo) [Compound 16c, reference compound] | – | 63 | – | – |
| COC(=O)C1=C(c2ccc(Cl)c(Cl)c2)C[C@H]2C[C@H](O)[C@@H]1N2C [(1R)-8a, (1R)-2-Carbomethoxy-3-(3,4-dichlorophenyl)-7β-hydroxy-8-methyl-8-azabicyclo{3.2.1}oct-2-ene] | 1590 | – | 265 to 2690 | – |
| COC(=O)[C@@H]1[C@H]2[C@@H](O)C[C@@H](C[C@H]1c1ccc(Cl)c(Cl)c1)N2C (relative stereo) [Compound 30b, 2β-Carbomethoxy-3α-(3,4-dichlorophenyl)-7α-hydroxy-8-methyl-8-azabicyclo{3.2.1}octane] | 991 | – | – | melting point: 121 to 123 °C |
| COC(=O)[C@@H]1[C@H]2[C@H](O)C[C@@H](C[C@H]1c1ccccc1)N2C (relative stereo) [Compound 18d, 2β-Carbomethoxy-3α-phenyl-7β-hydroxy-8-methyl-8-azabicyclo{3.2.1}octane] | – | – | – | melting point: 165 to 167 °C |
| COC(=O)C1=C(c2ccc(F)cc2)C[C@@H]2C[C@@H](O)[C@H]1N2C (racemic) [Compound 8c, 2-Carbomethoxy-3-(4-fluorophenyl)-7β-hydroxy-8-methyl-8-azabicyclo{3.2.1}oct-2-ene] | > 10000 | 1 | – | – |
| COC(=O)C1=C(c2ccc(Cl)c(Cl)c2)C[C@@H]2C[C@@H](O)[C@H]1N2C (racemic) [Compound 8a, 2-Carbomethoxy-3-(3,4-dichlorophenyl)-7β-hydroxy-8-methyl-8-azabicyclo{3.2.1}oct-2-ene] | > 6000 | – | – | melting point: 130.4 to 132.4 °C |
| COC(=O)[C@@H]1[C@H]2C[C@H](O)[C@@H](C[C@H]1OC(c1ccc(F)cc1)c1ccc(F)cc1)N2C (relative stereo) [Compound 32a, 2β-Carbomethoxy-3α-bis(4-fluorophenyl)methoxy-6β-hydroxy-8-methyl-8-azabicyclo{3.2.1}octane] | 4850 | – | – | – |
| COC(=O)[C@@H]1[C@H]2CC[C@@H](C[C@H]1c1ccc(Cl)c(Cl)c1)N2C [Compound 16a, reference compound] | – | 73 | – | IC50 ([2]; monkey caudate-putamen, read-out: IC50 (nM) DAT): 0.38 nM |
| COC(=O)C1C(c2ccc(Cl)c(Cl)c2)CC2CC(O)C1N2C (single isomer, unassigned) [(1R)-15a] | 139 | 0.05 | 265 to 2690 | – |
| COC(=O)[C@H]1[C@@H](c2ccc(F)cc2)C[C@@H]2CC[C@H]1N2C [Compound 13c, (1R)-3β-(4-fluorophenyl)tropane-2β-carboxylic acid methyl ester, reference compound] | 160 | 15 | 11 | – |
| COC(=O)C1=C(c2ccccc2)C[C@@H]2CC[C@H]1N2C (relative stereo) [Compound 6d, reference compound] | 28600 | 11 | – | – |
| COC(=O)C1=C(c2ccc3ccccc3c2)CC2CCC1N2C (stereo not shown) [Compound 6b, reference compound] | 109 | 37 | 2.94 | – |
| COC(=O)C1C(c2ccc(Cl)c(Cl)c2)CC2CC(O)C1N2C (single isomer, unassigned) [Compound (1R)-18a] | – | – | 265 to 2690 | – |
| COC(=O)C1=C(c2ccc(Cl)c(Cl)c2)C[C@@H]2C[C@@H](O)[C@H]1N2C [(1S)-8a, (1S)-2-Carbomethoxy-3-(3,4-dichlorophenyl)-7β-hydroxy-8-methyl-8-azabicyclo{3.2.1}oct-2-ene] | 5370 | – | – | – |
| COC(=O)C1C(c2ccccc2)CC2[C@@H](O)CC1N2C (stereo partly shown) [Compound 34] | > 20000 | – | – | inhibition of {3H}WIN 35,428 binding, result in words ([2]; monkey caudate-putamen): inactive |
| COC(=O)C1C(c2ccc(Cl)c(Cl)c2)CC2CC(O)C1N2C (single isomer, unassigned) [(1S)-15a] | 15 | 50 | 0.3 to 7.4 | fold more selective (DAT vs SERT) than 13a ([2]; compared with 13a): 25 fold |
| COC(=O)[C@@H]1[C@H]2CC[C@@H](C[C@H]1c1ccc3ccccc3c1)N2C (relative stereo) [Compound 16b, reference compound] | – | 10 | 0.57 | – |
| COC(=O)[C@@H]1[C@H]2[C@H](O)C[C@@H](C[C@H]1c1ccc(Cl)c(Cl)c1)N2C (relative stereo) [Compound 18a, 2β-Carbomethoxy-3α-(3,4-dichlorophenyl)-7β-hydroxy-8-methyl-8-azabicyclo{3.2.1}octane] | – | – | – | melting point: 148.5 to 150 °C |
| COC(=O)[C@@H]1[C@H]2C[C@H](O)[C@@H](C[C@H]1c1ccccc1)N2C (relative stereo) [Compound 17d, 2β-Carbomethoxy-3α-phenyl-6β-hydroxy-8-methyl-8-azabicyclo{3.2.1}octane] | – | >3 | – | melting point: 138 to 140 °C |
| COC(=O)C1C(c2ccc3ccccc3c2)CC2CCC1N2C (stereo not shown) [Compound 13b, reference compound] | – | 5 | – | – |
| COC(=O)C1=C(c2ccc(Cl)c(Cl)c2)CC2CCC1N2C (stereo not shown) [Compound 6a, reference compound] | 867 | 747 | 1.16 | – |
| COC(=O)[C@H]1[C@@H](c2ccccc2)C[C@@H]2CC[C@H]1N2C (relative stereo) [Compound 13d, reference compound] | – | – | 65 | – |
| COC(=O)[C@@H]1[C@H]2C[C@H](O)[C@@H](C[C@H]1c1ccc(Cl)c(Cl)c1)N2C (relative stereo) [Compound 17a, 2β-Carbomethoxy-3α-(3,4-dichlorophenyl)-6β-hydroxy-8-methyl-8-azabicyclo{3.2.1}octane] | – | 238 | – | melting point: 129.1 to 131.1 °C |
